In ChEMBL document CHEMBL1909046, “DrugMatrix in vitro pharmacology data”:
pIC50, pKi: −log10 of the molar value.

Experiments:
[1] = target: Beta-3 adrenergic receptor (Homo sapiens, UniProt P13945); test: DRUGMATRIX: Adrenergic beta3 radioligand binding (ligand: [125I] Cyanopindolol); assay type: cell membranes, HEK293, Membrane; conditions: hek293; Not Active = under 50% inhibition at 10 µM
[2] = DRUGMATRIX: Glutamate, NMDA, Phencyclidine radioligand binding (ligand: [3H] TCP); assay type: cell membranes, Rattus norvegicus, Wistar, Cerebral cortex, Membrane; conditions: Not Active = under 50% inhibition at 10 µM
[3] = DRUGMATRIX: Interleukin IL-1 radioligand binding (ligand: [125I] interleukin 1beta); assay type: cell membranes, Membrane; conditions: nih3t3; Not Active = under 50% inhibition at 10 µM
Endothelin-1 receptor = target: T1, Endothelin-1 receptor (Homo sapiens, UniProt P25101); assay type: cell membranes, Membrane; conditions: cho-k1; note: in other assays of this panel Not Active means under 50% inhibition at 10 µM
T1 sequence (P25101 whole entry): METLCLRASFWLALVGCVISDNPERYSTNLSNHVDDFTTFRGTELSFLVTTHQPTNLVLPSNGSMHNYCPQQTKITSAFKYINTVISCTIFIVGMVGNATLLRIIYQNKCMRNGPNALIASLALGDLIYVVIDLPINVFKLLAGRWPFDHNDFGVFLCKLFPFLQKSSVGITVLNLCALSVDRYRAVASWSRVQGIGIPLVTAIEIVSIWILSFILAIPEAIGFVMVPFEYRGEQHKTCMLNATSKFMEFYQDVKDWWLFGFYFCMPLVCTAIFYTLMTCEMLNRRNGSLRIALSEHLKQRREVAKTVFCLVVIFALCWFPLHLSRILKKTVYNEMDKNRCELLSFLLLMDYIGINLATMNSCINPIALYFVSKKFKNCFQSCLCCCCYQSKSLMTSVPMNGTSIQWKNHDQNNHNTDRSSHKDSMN

[4] = target: T2, Alpha-1B adrenergic receptor (Rattus norvegicus, UniProt P15823); test: DRUGMATRIX: Alpha-1B adrenergic receptor radioligand binding (ligand: prazosin); assay type: cell membranes, Wistar, Liver, Membrane; conditions: Not Active = under 50% inhibition at 10 µM
T2 sequence (P15823 whole entry): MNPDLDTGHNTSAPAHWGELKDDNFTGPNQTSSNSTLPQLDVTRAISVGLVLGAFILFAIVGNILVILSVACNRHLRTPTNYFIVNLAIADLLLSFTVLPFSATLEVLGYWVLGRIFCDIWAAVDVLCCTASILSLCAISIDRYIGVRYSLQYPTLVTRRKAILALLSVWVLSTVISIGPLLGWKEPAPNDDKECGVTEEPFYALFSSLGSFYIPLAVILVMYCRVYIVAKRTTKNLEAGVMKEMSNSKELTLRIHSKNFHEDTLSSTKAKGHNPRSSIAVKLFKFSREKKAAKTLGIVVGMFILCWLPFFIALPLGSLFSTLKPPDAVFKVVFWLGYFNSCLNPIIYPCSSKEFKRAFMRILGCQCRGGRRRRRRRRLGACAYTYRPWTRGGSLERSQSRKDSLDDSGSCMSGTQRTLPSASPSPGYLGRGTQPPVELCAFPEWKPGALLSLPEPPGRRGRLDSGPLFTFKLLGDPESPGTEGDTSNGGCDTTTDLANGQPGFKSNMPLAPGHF

[5] = target: T3, Angiotensin-converting enzyme (Oryctolagus cuniculus, UniProt P12822); test: biochemical; assay type: tissue-based, Lung;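 note: enzymatic inhibition of angiotensin-converting enzyme measured with FAPGG as the substrate; in other assays of this panel Not Active means under 50% inhibition at 10 µM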
T3 sequence (P12822 whole entry): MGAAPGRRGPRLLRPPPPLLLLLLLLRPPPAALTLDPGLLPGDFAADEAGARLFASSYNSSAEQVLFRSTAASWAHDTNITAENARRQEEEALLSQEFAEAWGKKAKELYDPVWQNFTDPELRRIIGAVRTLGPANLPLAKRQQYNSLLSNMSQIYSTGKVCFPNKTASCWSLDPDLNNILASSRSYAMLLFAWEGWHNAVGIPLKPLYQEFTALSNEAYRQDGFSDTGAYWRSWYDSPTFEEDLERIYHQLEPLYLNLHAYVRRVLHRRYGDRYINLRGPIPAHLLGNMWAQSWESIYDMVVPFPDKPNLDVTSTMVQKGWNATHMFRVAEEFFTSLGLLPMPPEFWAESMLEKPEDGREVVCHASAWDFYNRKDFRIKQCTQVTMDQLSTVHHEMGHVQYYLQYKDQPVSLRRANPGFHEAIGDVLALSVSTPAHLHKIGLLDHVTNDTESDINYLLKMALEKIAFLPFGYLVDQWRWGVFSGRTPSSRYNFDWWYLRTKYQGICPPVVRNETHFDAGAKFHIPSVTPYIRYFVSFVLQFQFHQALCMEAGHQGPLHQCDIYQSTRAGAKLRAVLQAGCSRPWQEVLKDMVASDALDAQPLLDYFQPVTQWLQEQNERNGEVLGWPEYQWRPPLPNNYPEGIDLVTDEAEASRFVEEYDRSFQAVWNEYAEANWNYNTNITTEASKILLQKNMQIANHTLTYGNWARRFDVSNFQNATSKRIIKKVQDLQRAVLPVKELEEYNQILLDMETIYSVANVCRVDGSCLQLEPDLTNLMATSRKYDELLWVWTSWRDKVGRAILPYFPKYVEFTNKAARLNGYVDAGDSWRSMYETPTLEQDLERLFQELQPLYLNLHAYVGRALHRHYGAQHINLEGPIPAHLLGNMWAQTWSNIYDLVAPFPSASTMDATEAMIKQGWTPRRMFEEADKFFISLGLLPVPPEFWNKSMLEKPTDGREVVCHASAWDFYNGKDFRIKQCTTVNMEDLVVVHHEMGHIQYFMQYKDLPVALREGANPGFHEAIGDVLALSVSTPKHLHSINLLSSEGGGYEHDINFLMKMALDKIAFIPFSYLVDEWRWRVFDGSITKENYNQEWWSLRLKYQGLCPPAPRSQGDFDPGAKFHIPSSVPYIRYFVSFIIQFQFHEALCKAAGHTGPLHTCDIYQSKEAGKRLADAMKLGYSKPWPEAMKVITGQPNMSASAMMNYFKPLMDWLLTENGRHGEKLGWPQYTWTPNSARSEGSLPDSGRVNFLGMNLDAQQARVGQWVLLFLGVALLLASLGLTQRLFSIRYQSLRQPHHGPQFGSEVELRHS

[6] = target: Sodium-dependent dopamine transporter (Homo sapiens, UniProt Q01959); test: DRUGMATRIX: Dopamine Transporter radioligand binding (ligand: [125I] RTI-55); assay type: cell membranes, CHO-K1, Membrane; conditions: cho-k1; Not Active = under 50% inhibition at 10 µM
Chain of Sodium-dependent dopamine transporter (Q01959 whole entry): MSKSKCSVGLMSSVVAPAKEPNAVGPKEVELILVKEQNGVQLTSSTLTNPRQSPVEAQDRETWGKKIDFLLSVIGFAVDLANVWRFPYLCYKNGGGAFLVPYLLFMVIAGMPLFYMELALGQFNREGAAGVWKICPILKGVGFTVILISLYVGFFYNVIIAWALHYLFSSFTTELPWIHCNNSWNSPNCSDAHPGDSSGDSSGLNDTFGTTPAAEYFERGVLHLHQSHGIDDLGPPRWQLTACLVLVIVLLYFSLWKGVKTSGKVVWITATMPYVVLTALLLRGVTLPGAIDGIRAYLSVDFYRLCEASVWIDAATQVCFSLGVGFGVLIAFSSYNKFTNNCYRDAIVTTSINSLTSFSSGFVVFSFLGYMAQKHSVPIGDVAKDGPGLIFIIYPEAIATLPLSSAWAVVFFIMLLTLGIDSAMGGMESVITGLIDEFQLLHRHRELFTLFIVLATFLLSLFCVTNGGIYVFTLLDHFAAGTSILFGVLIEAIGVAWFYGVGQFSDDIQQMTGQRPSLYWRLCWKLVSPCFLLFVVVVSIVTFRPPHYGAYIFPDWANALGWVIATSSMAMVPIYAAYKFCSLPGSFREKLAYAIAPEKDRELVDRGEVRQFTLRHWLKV

[7] = target: Mitogen-activated protein kinase 1 (Homo sapiens, UniProt P28482); test: DRUGMATRIX: Protein Serine/Threonine Kinase, ERK2 enzyme inhibition (substrate: Myelin Basic Protein); set-up: species or system Escherichia coli; conditions: Not Active = under 50% inhibition at 10 µM
Chain of Mitogen-activated protein kinase 1 (P28482 whole entry): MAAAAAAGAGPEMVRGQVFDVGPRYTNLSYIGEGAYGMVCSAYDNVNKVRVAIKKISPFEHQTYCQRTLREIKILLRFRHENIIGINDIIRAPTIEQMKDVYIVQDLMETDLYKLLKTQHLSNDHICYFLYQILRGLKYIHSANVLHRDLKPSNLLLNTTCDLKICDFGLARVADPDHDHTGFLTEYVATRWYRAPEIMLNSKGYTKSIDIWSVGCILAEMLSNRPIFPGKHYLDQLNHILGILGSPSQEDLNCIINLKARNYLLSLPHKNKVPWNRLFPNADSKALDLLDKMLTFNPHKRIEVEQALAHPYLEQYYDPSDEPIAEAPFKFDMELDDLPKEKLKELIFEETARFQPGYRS

Chain of Beta-3 adrenergic receptor (P13945 whole entry): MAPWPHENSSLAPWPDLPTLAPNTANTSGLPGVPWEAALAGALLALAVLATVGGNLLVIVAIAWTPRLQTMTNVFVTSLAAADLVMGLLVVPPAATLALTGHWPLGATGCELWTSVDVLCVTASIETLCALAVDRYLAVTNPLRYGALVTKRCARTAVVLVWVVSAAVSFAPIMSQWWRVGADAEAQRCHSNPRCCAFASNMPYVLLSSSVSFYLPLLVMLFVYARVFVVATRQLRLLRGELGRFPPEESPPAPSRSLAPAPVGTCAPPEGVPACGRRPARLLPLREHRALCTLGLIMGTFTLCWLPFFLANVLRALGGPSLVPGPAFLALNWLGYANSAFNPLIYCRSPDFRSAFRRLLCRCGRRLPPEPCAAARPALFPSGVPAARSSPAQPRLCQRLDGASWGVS

Compound	IC50 [1]	Ki [1]	IC50 [2]	Ki [2]	IC50 [3]	Ki [3]	IC50 (Endothelin-1 receptor)	Ki (Endothelin-1 receptor)	IC50 [4]	Ki [4]	IC50 [5]	Ki [5]	IC50 [6]	Ki [6]	IC50 [7]	Ki [7]	pIC50 ([4]; read-out: IC50)	pKi ([4]; read-out: Ki)
O=[N+]([O-])c1cc([As](=O)(O)O)ccc1O [ROXARSONE]	Not Active	Not Active	Not Active	Not Active	Not Active	Not Active	Not Active	Not Active	Not Active	Not Active	Not Active	Not Active	Not Active	Not Active	Not Active	Not Active		
CC[C@H]1OC(=O)[C@H](C)[C@@H](O[C@H]2C[C@@](C)(OC)[C@@H](O)[C@H](C)O2)[C@H](C)[C@@H](O[C@@H]2O[C@H](C)C[C@H](N(C)C)[C@H]2O)[C@](C)(O)C[C@@H](C)/C(=N\OCOCCOC)[C@H](C)[C@@H](O)[C@]1(C)O [ROXITHROMYCIN]	Not Active		Not Active	Not Active	Not Active	Not Active	Not Active				Not Active		Not Active		Not Active		6.00	6.26
NC(=O)c1ccccc1O [SALICYLAMIDE]	Not Active		Not Active	Not Active	Not Active	Not Active	Not Active		Not Active		Not Active		Not Active		Not Active			
Cc1ncc([N+](=O)[O-])n1CC(C)O (configuration not stated) [SECNIDAZOLE]	Not Active		Not Active	Not Active	Not Active	Not Active	Not Active		Not Active		Not Active		Not Active		Not Active			
CN[C@@H]1[C@@H](O)[C@@H](O[C@@H]2[C@@H](O)[C@H](O[C@H]3OC(CN)=CC[C@H]3N)[C@@H](N)C[C@H]2N)OC[C@]1(C)O [SISOMICIN]	Not Active		Not Active	Not Active	Not Active	Not Active	Not Active		Not Active		Not Active		Not Active		Not Active			
CC(=O)S[C@@H]1CC2=CC(=O)CC[C@]2(C)[C@H]2CC[C@@]3(C)[C@@H](CC[C@@]34CCC(=O)O4)[C@H]12 [SPIRONOLACTONE]	Not Active		Not Active	Not Active	Not Active	Not Active	Not Active		Not Active		Not Active		Not Active		Not Active			
C[C@]12Cc3c[nH]nc3C[C@@H]1CC[C@@H]1[C@@H]2CC[C@@]2(C)[C@H]1CC[C@]2(C)O [STANOZOLOL]	Not Active		Not Active	Not Active	Not Active	Not Active	Not Active		Not Active		Not Active		Not Active		Not Active			
CN(N=O)C(=O)N[C@@H](C=O)[C@@H](O)[C@H](O)[C@H](O)CO [STREPTOZOCIN]	Not Active		Not Active	Not Active	Not Active	Not Active	Not Active		Not Active		Not Active		Not Active		Not Active			
Cc1cc(NS(=O)(=O)c2ccc(N)cc2)no1 [SULFAMETHOXAZOLE]	Not Active		Not Active	Not Active	Not Active	Not Active	Not Active		Not Active		Not Active		Not Active		Not Active			
Nc1ccc(S(N)(=O)=O)cc1 [SULFANILAMIDE]	Not Active		Not Active	Not Active	Not Active	Not Active	Not Active		Not Active		Not Active		Not Active		Not Active			
Nc1ccc(S(=O)(=O)Nc2ccnn2-c2ccccc2)cc1 [SULFAPHENAZOLE]	Not Active		Not Active	Not Active	Not Active	Not Active	Not Active		Not Active		Not Active		Not Active		Not Active			
C=CC[C@@H]1/C=C(\C)C[C@H](C)C[C@H](OC)[C@H]2O[C@@](O)(C(=O)C(=O)N3CCCC[C@H]3C(=O)O[C@H](/C(C)=C/[C@@H]3CC[C@@H](O)[C@H](OC)C3)[C@H](C)[C@@H](O)CC1=O)[C@H](C)C[C@@H]2OC [TACROLIMUS ANHYDROUS]	Not Active		Not Active	Not Active	Not Active	Not Active	Not Active		Not Active		Not Active		Not Active		Not Active			
